Results reported in ChEMBL document CHEMBL1201862, “PubChem BioAssay data set” (2004).
Blank lines part the entries; values can stand above or below the compound they belong to. Calls of active or inactive are those of the source.

Experiments:
Bcl-2-related protein A1 = target: T1, Bcl-2-related protein A1 (Mus musculus, UniProt Q07440); type: functional;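 further: confirmatory dose–response counterscreen on Bfl-1, used to check hits from a UBC13 polyubiquitin inhibitor campaign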
T1 sequence (Q07440 whole entry): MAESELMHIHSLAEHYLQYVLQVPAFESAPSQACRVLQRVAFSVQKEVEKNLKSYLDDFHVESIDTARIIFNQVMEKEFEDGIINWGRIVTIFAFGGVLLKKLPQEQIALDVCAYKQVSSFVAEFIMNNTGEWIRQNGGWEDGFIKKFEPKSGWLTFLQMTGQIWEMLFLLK

[1] = target: T2, Ubiquitin-conjugating enzyme E2 N (Homo sapiens, UniProt P61088); type: functional
T2 sequence (P61088 whole entry): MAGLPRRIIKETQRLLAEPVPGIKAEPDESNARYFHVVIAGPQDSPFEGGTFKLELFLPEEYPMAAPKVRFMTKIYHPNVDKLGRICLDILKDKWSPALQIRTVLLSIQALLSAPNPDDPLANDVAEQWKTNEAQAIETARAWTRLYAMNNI

[2] = target: T2, Ubiquitin-conjugating enzyme E2 N; type: functional; remark: listed apart in the source
Aminopeptidase N = target: T3, Aminopeptidase N (Plasmodium falciparum FcB1/Columbia, UniProt O96935); assay: P. falciparum M1AAP inhibitors, biochemical, fluorogenic H-Leu-NHMec substrate, 1536-well (AID 1445); design: species or system Plasmodium falciparum 3D7, 3D7
T3 sequence (O96935 whole entry): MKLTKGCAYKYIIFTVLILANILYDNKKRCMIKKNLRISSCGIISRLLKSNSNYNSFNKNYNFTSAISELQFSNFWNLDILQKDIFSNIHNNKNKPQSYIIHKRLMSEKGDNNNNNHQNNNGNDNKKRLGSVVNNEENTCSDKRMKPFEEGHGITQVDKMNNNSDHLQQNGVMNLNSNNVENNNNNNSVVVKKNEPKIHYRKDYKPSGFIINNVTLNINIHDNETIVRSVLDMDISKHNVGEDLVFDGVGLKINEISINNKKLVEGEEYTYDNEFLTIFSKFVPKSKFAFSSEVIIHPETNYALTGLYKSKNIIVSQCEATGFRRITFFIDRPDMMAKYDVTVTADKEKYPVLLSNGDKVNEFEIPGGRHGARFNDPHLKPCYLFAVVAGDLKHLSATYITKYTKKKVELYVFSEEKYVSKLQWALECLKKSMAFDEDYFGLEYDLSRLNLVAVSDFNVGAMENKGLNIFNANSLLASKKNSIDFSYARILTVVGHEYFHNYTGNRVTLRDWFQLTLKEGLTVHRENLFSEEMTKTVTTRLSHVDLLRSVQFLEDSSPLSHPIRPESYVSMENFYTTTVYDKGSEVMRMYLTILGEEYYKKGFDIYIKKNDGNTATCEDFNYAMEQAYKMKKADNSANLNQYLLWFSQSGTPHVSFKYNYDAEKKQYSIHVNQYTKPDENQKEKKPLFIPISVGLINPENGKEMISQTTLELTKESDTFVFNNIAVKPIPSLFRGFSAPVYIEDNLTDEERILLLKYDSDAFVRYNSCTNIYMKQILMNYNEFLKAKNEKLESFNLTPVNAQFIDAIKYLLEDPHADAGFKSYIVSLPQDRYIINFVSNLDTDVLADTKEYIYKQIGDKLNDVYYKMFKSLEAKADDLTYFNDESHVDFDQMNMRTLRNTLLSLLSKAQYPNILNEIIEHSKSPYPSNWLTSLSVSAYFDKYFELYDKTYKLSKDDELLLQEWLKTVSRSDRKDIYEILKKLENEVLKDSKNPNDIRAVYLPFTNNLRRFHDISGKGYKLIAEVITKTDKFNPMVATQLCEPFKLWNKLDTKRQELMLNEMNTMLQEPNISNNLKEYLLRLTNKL

[3] = inhibitors of intracellular T. cruzi replication, confirmation, NIH3T3 host cells, beta-gal luminescence (AID 2044); type: functional, cell-based;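 further: intracellular parasites grown in NIH/3T3 mouse fibroblasts as host cells; luminescent beta-galactosidase reporter signal from transgenic T. cruzi replicating inside host cells; inhibitors lower the luminescence signal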
[4] = cytotoxicity toward NIH3T3 fibroblasts, dose response, counter-screen, cell-based, ATP luminescence, mouse fibroblasts (AID 2010); type: functional;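 further: cells exposed to compound for about 90 hours before reading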
Genome polyprotein = Genome polyprotein (dengue virus type 2, UniProt P29990); assay: Dengue-2 NS5 methyltransferase inhibitors, primary screen, biochemical, confirmation dose response (AID 588689); type: functional
[5] = target: Peroxisome proliferator-activated receptor gamma/Nuclear receptor coactivator 1 (Homo sapiens, UniProt P37231); assay: TR-FRET dose response biochemical High Throughput Screening assay for agonists of the steroid receptor coactivator 1 (SRC-1) recruitment by the peroxisome proliferator-activated receptor gamma (PPAR gamma): non-selective agonists. [Related pubchem assays (depositor defined):AID1300, AID1808, AID504735, AID631]; type: protein assay
Peroxisome proliferator-activated receptor gamma/Nuclear receptor coactivator 1, sequence (P37231 whole entry): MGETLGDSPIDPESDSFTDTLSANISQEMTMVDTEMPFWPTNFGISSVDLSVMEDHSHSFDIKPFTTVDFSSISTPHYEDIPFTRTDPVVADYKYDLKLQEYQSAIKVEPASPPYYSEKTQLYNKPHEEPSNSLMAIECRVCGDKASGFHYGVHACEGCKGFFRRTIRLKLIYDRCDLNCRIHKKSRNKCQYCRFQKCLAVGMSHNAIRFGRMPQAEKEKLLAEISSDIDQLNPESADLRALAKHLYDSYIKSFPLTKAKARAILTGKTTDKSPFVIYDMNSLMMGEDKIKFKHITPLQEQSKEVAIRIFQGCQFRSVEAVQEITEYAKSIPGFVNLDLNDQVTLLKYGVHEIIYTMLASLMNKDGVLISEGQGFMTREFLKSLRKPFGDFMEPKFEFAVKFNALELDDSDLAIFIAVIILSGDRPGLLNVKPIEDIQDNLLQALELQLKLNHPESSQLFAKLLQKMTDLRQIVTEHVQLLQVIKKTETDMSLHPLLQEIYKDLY
Peroxisome proliferator-activated receptor gamma/Nuclear receptor coactivator 1, sequence (Q15788 whole entry, further chain): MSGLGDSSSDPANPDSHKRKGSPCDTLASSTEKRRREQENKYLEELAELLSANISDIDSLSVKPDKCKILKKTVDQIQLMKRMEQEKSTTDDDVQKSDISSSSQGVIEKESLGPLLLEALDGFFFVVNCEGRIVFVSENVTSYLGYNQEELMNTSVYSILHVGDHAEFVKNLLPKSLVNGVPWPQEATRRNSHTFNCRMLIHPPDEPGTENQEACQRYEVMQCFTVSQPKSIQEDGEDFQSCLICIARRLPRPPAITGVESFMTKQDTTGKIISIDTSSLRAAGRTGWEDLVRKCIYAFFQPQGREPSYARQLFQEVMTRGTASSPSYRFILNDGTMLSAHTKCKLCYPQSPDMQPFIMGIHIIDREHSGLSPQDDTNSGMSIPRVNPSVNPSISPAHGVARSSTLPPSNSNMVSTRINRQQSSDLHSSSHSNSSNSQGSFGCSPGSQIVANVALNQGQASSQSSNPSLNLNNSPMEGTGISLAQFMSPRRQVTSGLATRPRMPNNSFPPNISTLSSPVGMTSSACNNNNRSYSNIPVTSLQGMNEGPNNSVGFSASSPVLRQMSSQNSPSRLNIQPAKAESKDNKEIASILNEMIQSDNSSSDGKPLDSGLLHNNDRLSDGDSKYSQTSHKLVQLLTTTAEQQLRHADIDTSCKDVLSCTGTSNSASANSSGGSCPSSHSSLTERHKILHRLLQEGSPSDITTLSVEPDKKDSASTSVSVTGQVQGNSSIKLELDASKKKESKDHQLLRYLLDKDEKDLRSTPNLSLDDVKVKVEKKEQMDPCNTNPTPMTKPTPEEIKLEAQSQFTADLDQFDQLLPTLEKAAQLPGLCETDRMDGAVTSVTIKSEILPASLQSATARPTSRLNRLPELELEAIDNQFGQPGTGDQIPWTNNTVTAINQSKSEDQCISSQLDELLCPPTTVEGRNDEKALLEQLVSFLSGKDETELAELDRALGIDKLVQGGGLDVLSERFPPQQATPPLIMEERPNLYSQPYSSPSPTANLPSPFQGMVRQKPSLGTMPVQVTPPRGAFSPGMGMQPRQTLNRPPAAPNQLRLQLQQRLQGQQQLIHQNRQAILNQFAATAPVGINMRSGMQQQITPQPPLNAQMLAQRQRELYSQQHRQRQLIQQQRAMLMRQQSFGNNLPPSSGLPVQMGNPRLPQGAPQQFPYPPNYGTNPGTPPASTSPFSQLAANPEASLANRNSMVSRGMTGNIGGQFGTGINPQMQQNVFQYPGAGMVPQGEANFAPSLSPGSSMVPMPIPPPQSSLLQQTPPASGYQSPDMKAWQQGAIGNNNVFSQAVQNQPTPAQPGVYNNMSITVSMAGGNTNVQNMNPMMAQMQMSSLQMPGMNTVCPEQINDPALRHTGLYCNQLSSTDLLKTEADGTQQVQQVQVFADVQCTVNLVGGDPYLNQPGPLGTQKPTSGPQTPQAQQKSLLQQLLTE

[6] = target: Peroxisome proliferator-activated receptor gamma/Nuclear receptor coactivator 3 (Homo sapiens, UniProt P37231); assay: TR-FRET dose response biochemical High Throughput Screening assay for agonists of the steroid receptor coactivator 3 (SRC-3) recruitment by the peroxisome proliferator-activated receptor gamma (PPAR gamma): non-selective agonists. [Related pubchem assays: 1301 (Confirmation screen.), 1048 (Primary screen.)]; type: functional
[7] = target: Peroxisome proliferator-activated receptor gamma/Nuclear receptor coactivator 2 (Homo sapiens, UniProt P37231); assay: TR-FRET dose response biochemical High Throughput Screening assay for agonists of the steroid receptor coactivator 2 (SRC-2) recruitment by the peroxisome proliferator-activated receptor gamma (PPAR gamma): non-selective agonists. [Related pubchem assays: 1297, 1032 ]; type: functional
Peroxisome proliferator-activated receptor gamma/Nuclear receptor coactivator 2, sequence (P37231 whole entry): as the sequence (P37231 whole entry) above
Peroxisome proliferator-activated receptor gamma/Nuclear receptor coactivator 2, sequence (Q15596 whole entry, further chain): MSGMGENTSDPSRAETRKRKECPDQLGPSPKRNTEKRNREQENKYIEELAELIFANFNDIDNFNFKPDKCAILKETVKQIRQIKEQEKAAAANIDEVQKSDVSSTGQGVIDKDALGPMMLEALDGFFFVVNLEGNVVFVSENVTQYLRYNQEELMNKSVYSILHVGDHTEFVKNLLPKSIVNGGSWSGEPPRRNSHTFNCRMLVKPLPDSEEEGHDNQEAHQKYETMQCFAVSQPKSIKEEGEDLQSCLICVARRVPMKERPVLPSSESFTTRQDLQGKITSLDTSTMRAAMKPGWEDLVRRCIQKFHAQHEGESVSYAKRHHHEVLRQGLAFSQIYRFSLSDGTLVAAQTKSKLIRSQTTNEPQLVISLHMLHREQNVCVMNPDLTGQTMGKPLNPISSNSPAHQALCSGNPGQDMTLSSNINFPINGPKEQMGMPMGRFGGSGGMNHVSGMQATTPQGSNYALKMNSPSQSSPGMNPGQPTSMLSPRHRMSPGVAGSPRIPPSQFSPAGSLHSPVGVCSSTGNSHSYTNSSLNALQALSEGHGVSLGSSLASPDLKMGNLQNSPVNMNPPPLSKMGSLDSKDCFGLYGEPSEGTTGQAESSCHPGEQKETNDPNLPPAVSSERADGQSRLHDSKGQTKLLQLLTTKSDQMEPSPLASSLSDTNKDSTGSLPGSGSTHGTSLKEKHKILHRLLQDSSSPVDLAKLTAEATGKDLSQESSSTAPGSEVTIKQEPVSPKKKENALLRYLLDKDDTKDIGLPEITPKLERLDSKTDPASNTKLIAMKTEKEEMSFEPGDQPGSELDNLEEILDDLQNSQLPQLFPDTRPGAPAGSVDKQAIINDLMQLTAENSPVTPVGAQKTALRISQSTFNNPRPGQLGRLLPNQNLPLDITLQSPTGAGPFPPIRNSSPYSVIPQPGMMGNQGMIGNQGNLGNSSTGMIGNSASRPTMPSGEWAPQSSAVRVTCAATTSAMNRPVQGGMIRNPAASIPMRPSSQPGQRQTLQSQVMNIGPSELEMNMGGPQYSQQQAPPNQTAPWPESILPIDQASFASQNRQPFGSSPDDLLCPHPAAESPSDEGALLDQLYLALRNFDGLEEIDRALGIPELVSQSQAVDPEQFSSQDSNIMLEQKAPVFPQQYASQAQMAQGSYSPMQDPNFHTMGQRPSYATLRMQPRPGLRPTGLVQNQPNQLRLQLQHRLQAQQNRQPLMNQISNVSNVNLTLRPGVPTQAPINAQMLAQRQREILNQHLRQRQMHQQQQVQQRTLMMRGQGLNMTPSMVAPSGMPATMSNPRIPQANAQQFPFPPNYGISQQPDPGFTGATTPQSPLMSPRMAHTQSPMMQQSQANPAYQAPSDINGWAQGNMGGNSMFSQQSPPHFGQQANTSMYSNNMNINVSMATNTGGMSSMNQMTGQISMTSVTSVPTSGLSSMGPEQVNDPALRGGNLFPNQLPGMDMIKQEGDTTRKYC

[8] = target: T4, DNA dC->dU-editing enzyme APOBEC-3A (Homo sapiens, UniProt P31941); assay: Dose Response confirmation of small molecule APOBEC3A DNA Deaminase Inhibitors via a fluorescence-based single-stranded DNA deaminase assay. [Related pubchem assays (depositor defined):AID493011, AID493024]; type: functional
T4 sequence (P31941 whole entry): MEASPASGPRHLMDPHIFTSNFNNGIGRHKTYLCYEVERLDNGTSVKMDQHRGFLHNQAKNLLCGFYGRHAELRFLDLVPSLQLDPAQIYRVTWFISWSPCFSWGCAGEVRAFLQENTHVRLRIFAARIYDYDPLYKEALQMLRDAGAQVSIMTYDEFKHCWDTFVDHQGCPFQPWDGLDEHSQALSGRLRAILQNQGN

[9] = target: T5, DNA dC->dU-editing enzyme APOBEC-3G (Homo sapiens, UniProt Q9HC16); type: functional
T5 sequence (Q9HC16 whole entry): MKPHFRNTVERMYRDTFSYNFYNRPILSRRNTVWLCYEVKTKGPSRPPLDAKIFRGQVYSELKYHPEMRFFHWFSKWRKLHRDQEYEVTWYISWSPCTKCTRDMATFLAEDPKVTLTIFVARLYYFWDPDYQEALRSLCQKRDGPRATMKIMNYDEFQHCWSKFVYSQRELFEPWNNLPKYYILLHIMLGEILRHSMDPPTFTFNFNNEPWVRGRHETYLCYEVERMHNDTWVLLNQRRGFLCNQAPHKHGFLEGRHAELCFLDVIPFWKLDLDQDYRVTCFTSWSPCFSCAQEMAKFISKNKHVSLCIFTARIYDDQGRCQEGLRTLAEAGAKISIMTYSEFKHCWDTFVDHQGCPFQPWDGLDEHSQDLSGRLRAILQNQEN

[10] = target: T6, Microphthalmia-associated transcription factor (Homo sapiens, UniProt O75030); assay: TRPM1 promoter luciferase signal decrease, dose response, MITF inhibitor project, cell-based, SK-MEL-5, cherry-picked, set 3 (AID 493073); type: functional
T6 sequence (O75030 whole entry): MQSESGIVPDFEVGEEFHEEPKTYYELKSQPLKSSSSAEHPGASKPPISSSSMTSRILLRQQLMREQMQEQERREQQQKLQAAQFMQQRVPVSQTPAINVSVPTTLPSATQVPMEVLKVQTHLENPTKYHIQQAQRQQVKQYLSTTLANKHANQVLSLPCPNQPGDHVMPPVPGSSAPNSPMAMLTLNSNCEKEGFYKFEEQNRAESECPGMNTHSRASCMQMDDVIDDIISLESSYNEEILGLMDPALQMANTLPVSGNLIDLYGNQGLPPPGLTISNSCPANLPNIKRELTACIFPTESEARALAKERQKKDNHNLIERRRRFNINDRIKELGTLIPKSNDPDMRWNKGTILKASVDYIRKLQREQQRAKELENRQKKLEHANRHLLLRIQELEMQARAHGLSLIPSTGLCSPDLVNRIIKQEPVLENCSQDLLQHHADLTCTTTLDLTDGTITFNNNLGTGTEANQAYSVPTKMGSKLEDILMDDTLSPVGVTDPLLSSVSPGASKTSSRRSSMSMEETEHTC

[11] = target: Glyceraldehyde-3-phosphate dehydrogenase (Homo sapiens, UniProt P04406)
[12] = target: T7, Alkaline phosphatase, tissue-nonspecific isozyme (Homo sapiens, UniProt P05186); assay: human TNAP enzyme inhibitors, SAR follow-up, biochemical, luminescent, dose response (AID 1056)
T7 sequence (P05186 whole entry): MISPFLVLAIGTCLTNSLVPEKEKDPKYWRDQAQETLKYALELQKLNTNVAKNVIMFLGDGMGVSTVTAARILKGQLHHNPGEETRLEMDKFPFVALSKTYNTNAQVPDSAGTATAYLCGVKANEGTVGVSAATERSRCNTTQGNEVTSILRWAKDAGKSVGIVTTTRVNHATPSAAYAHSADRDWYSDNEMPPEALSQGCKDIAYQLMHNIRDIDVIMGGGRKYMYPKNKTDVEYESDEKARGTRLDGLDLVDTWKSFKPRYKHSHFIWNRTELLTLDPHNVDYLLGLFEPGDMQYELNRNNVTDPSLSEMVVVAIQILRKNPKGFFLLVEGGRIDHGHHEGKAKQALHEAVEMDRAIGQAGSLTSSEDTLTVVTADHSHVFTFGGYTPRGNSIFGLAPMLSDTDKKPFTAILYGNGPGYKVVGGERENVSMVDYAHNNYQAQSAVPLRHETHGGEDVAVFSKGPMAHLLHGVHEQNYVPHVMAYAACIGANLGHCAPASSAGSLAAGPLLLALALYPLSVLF

[13] = target: G-protein coupled receptor 55 (Homo sapiens, UniProt Q9Y2T6); assay: GPR55 antagonists blocking LPI-driven arrestin recruitment, primary screen, imaging, U2OS, beta-arrestin-GFP, LPI agonist (AID 2013); type: functional;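 further: antagonist potency measured as reduced agonist-driven arrestin aggregation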
G-protein coupled receptor 55, sequence (Q9Y2T6 whole entry): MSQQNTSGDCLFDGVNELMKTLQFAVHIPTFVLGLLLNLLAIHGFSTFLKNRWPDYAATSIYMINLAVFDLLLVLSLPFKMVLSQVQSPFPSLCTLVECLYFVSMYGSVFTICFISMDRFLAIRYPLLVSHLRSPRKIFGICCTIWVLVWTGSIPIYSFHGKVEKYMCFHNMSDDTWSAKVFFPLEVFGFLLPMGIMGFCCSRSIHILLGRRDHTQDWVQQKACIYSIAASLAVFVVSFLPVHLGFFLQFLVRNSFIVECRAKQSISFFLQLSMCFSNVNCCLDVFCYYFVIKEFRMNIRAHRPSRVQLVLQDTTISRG

Beta-galactosidase = Beta-galactosidase (Escherichia coli, UniProt Q8VNN2); assay: beta-galactosidase enzyme inhibitors and activators, dose response, artefact control for CCR6 antagonist project, biochemical, E. coli enzyme, set 3 (AID 504712); type: functional
[14] = target: T4, DNA dC->dU-editing enzyme APOBEC-3A; assay: APOBEC3A DNA deaminase inhibitors, dose response, biochemical (AID 504722); type: functional
[15] = target: T5, DNA dC->dU-editing enzyme APOBEC-3G; assay: Dose Response confirmation of small molecule APOBEC3G DNA Deaminase Inhibitors via a fluorescence-based single-stranded DNA deaminase assay. [Related pubchem assays (depositor defined):AID493012, AID493028]; type: functional
Large T antigen = Large T antigen (Simian virus 40, UniProt P03070); type: functional, Betapolyomavirus macacae;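 further: Confirmatory-stage PubChem screen for compounds that inhibit SV40 T antigen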

- IC50 (Bcl-2-related protein A1): > 20 µM (inactive)
- IC50 [1]: 15.4 µM (active)
- IC50 [2]: 17.8 µM (active)
Compound: COc1ccccc1NC(=O)CN1CCC(n2nnc3cc(F)ccc32)CC1

- EC50 [5]: 8.66 µM (active)
- EC50 [6]: > 26.5 µM (not active)
- EC50 [7]: 9.72 µM (active)
Compound: COc1cccc(C2C=C(c3ccc(Br)s3)Nc3ncnn32)c1OC (centres undefined)

- AC50 [10]: 5.3 µM (active)
Compound: Cc1ccc(-c2cn3nc(C)c(C)nc3n2)cc1

- IC50 (Aminopeptidase N): 39.3 µM (active)
Compound: COc1ccc(-c2nnc(SCC(=O)Nc3cc(S(=O)(=O)N4CCCCC4)ccc3Cl)n2N)cc1

- IC50 (Bcl-2-related protein A1): > 20 µM (inactive)
- IC50 [1]: 4.79 µM (active)
- IC50 [2]: 4.17 µM (active)
Compound: CC(=O)c1ccc(OCC(O)CN2CCN(CCN3C(=O)c4cccc5cccc(c45)C3=O)CC2)cc1 (centres undefined)

- EC50 [5]: 27.8 µM (inactive)
- EC50 [6]: > 79.4 µM (not active)
- EC50 [7]: 27.5 µM (not active)
Compound: CN=C(S)N1N=C(c2ccccc2)CC1c1ccc(Br)cc1 (centres undefined)

- IC50 [11]: > 100 µM (not active)
- IC50 [12]: > 100 µM (inactive)
Compound: COc1ccc(Cc2nnc(N3C(=O)c4ccccc4C3=O)[nH]2)cc1

- EC50 [5]: 60 µM (inactive)
- EC50 [6]: > 79.4 µM (not active)
- EC50 [7]: 8.2 µM (active)
Compound: Cc1ccc(S(=O)(=O)NCC(=O)OCC(=O)c2ccc(Br)s2)cc1

- IC50 (Aminopeptidase N): 41.9 µM (active)
Compound: Cc1ccc(NS(=O)(=O)c2ccc3[nH]c(=O)c(=O)[nH]c3c2)cc1Cl

- IC50 (Aminopeptidase N): 70.9 µM (active)
- IC50 (Large T antigen): 33.3 µM (active)
Compound: O=C(O)c1cc(S(=O)(=O)Nc2ccc3oc(=O)sc3c2)ccc1O

Further lines, the compound ahead of its results:

Compound: O=C(COc1ccccc1/C=C\c1nc(O)nc(O)c1[N+](=O)[O-])Nc1ccccc1
- IC50 (Aminopeptidase N): 42.9 µM (active)
- EC50 [3]: > 60 µM (not active)
- EC50 [4]: > 60 µM (not active)
- IC50 (Genome polyprotein): 39.9 µM (active)

Compound: CCN(CC)C(=O)c1ncn(C)c1C(=O)N(CC)CC
- IC50 [8]: 3.51 µM (active)
- IC50 [9]: 3.23 µM (active)

Compound: CCc1cccc(NC(=O)C[n+]2c3n(c4ccc(C(F)(F)F)cc42)CCCCC3)c1
- IC50 [8]: 2.69 µM (active)
- IC50 [9]: 5.22 µM (active)

Compound: CC(=O)Nc1nc(SCCCc2ccccc2)n[nH]1
- IC50 [11]: > 100 µM (not active)
- IC50 [12]: 6 µM (active)

Compound: O=C(Nc1ccccc1Cl)c1ccccc1Oc1ccc(C(F)(F)F)cc1[N+](=O)[O-]
- IC50 [13]: 3.31 µM (active)
- IC50 (Beta-galactosidase): > 66.6 µM (inactive)

Compound: COc1cc(C2Nn3c(nnc3-c3ccccc3OC)S2)ccc1O (centres undefined)
- IC50 [14]: > 100 µM (inactive)
- IC50 [15]: 3.57 µM (active)

Compound: COc1ccc(C(CC(=O)N2CCOCC2)c2c(OC)cc(OC)c3c(-c4ccccc4)cc(=O)oc23)cc1 (centres undefined)
- IC50 [8]: 17 µM (active)
- IC50 [9]: 50.9 µM (active)

Compound: CN1CCN(C(=O)CCN2C(=O)/C(=C/c3ccccc3Cl)SC2=S)CC1
- IC50 (Bcl-2-related protein A1): > 20 µM (inactive)
- IC50 [1]: 17.8 µM (active)
- IC50 [2]: > 20 µM (inactive)

Compound: O=[N+]([O-])c1ccc(/C=N/n2c(S)nnc2-c2cccnc2)cc1
- IC50 [14]: > 100 µM (inactive)
- IC50 [15]: 2.3 µM (active)

Compound: O=C1OC(c2ccc(O)cc2)(c2ccc(O)cc2)c2ccccc21 [PHENOLPHTHALEIN]
- IC50 [13]: 6.67 µM (active)
